Where two headings read alike, the source gives them in different places.
What was measured:
[1] = Pharmacokinetics of plasma chiauranib after single and multiple oral doses in patients (LC-MS/MS); assay type: in vivo, human
Method: Three milliliters of venous blood samples was drawn into heparinized tubes before drug administration as well as at 1, 2, 4, 6, 8, 12, 24, 48, 72, 96, 120, and 144 h post-dose. […] Three milliliters of venous blood samples was drawn into heparinized tubes before administration as well as at 1, 2, 4, 8, 12, and 24 h post the oral dose on day 28. […] Samples were centrifuged immediately at 3600×g for 10 min at 4 °C, and the plasma fractions were separated and stored at − 20 °C until analysis.
The intra- and inter-day precisions and accuracies (relative standard deviation, %RSD) were in the range of 1.75–6.33%, and − 7.88–9.00%, respectively. The extraction recovery (relative standard deviation, %RSD) was 1.32–5.16%.
Descriptive statistics were used for baseline characteristics, safety assessments, pharmacokinetic variables (including Cmax, Tmax, AUC, and t1/2) and exploratory efficacy assessments, including tumor response and time to progression. Continuous variables were summarized with means, standard deviations (SD), medians, minimums, and maximums. Categorical variables were summarized by counts and by percentage of patients in corresponding categories. P values < 0.05 were considered statistically significant. Statistical analyses were performed using SAS® v9.4 (Cary, NC).

VEGFR2 = tested on: VEGFR2; design: method as in PMID 28004478; conditions: cited from earlier work
VEGFR1 = tested on: VEGFR1; design: method as in PMID 28004478; conditions: cited from earlier work
c-Kit = tested on: c-Kit; design: method as in PMID 28004478; conditions: cited from earlier work
Aurora B = tested on: Aurora B; design: method as in PMID 28004478; conditions: cited from earlier work
[2] = Day28, multiple dose 10 mg once daily (n = 2)
[3] = Day28, multiple dose 20 mg once daily (n = 6)
[4] = Day28, multiple dose 35 mg once daily (n = 3)
[5] = Day28, multiple dose 50 mg once daily (n = 3)
[6] = Day28, multiple dose 65 mg once daily (n = 4)
[7] = human, plasma, oral, 10 mg, Day1, single dose 10 mg (n = 2)
[8] = human, plasma, oral, 10 mg, Day28, multiple dose 10 mg once daily (n = 2)
[9] = human, plasma, oral, 20 mg, Day1, single dose 20 mg (n = 6)
[10] = human, plasma, oral, 20 mg, Day28, multiple dose 20 mg once daily (n = 6)
[11] = human, plasma, oral, 35 mg, Day1, single dose 35 mg (n = 3)
[12] = human, plasma, oral, 35 mg, Day28, multiple dose 35 mg once daily (n = 3)
[13] = human, plasma, oral, 50 mg, Day1, single dose 50 mg (n = 3)
[14] = human, plasma, oral, 50 mg, Day28, multiple dose 50 mg once daily (n = 3)
[15] = human, plasma, oral, 65 mg, Day1, single dose 65 mg (n = 4)
[16] = human, plasma, oral, 65 mg, Day28, multiple dose 65 mg once daily (n = 4)

In the case of COc1ccc2c(Oc3ccc4c(C(=O)Nc5ccccc5N)cccc4c3)ccnc2c1 [chiauranib], the “dose dependence of plasma exposure” value ([1]; 10 to 65 mg, single and multiple dose) is reported as “dose proportional and good linear pharmacokinetic profile”, the Cav [1, 2] is reported as 174 (9) ng/mL and the Ctrough [1, 2] is reported as 122 (21) ng/mL. For the same molecule, the DF [1, 2] was 1.1 (0.4), the Cav [1, 3] was 257 (64) ng/mL and the Ctrough [1, 3] was 191 (89) ng/mL. The DF [1, 3] was 1.3 (0.6), the Cav [1, 4] was 490 (336) ng/mL and the Ctrough [1, 4] was 330 (208) ng/mL. For the same molecule, the DF [1, 4] was 0.8 (0.4), the Cav [1, 5] was 604 (235) ng/mL and the Ctrough [1, 5] was 467 (166) ng/mL. For the same molecule, the DF [1, 5] was 1.1 (0.3), the Cav [1, 6] was 1010 (492) ng/mL and the Ctrough [1, 6] was 890 (662) ng/mL. For the same molecule, the DF [1, 6] was 1.5 (0.8), the median peak time ([1]; after first dose in run-in period, 10-65 mg, range from 1 to 4 h) was 2 h and the “increase of trough plasma concentration versus after first administration” value ([1]; continuous once daily dosing) was “twofold”. For the same molecule, the Cmax [1, 7] was 201 ng/mL, the Tmax [1, 7] was 2 h and the AUC(0-t) ([1]; human, plasma, oral, 10 mg, Day1, single dose 10 mg (n = 2), read-out: AUC0–24 h) was 2000 ng·h/mL. For the same molecule, the AUC(0-t) ([1]; human, plasma, oral, 10 mg, Day1, single dose 10 mg (n = 2), read-out: AUC0–144 h) was 3580 ng·h/mL, the Cmax [1, 8] was 312 ng/mL and the Tmax [1, 8] was 2 h. It also gave an AUC(0-t) ([1]; human, plasma, oral, 10 mg, Day28, multiple dose 10 mg once daily (n = 2), read-out: AUC0–24 h) of 4180 ng·h/mL, a Cmax [1, 9] of 354 ng/mL and a Tmax [1, 9] of 2 h. For the same molecule, the AUC(0-t) ([1]; human, plasma, oral, 20 mg, Day1, single dose 20 mg (n = 6), read-out: AUC0–24 h) was 3450 ng·h/mL, the AUC(0-t) ([1]; human, plasma, oral, 20 mg, Day1, single dose 20 mg (n = 6), read-out: AUC0–144 h) was 6820 ng·h/mL and the Cmax [1, 10] was 517 ng/mL. It also gave a Tmax [1, 10] of 2 h, an AUC(0-t) ([1]; human, plasma, oral, 20 mg, Day28, multiple dose 20 mg once daily (n = 6), read-out: AUC0–24 h) of 6180 ng·h/mL and a Cmax [1, 11] of 608 ng/mL. It also gave a Tmax [1, 11] of 1 h, an AUC(0-t) ([1]; human, plasma, oral, 35 mg, Day1, single dose 35 mg (n = 3), read-out: AUC0–24 h) of 5760 ng·h/mL and an AUC(0-t) ([1]; human, plasma, oral, 35 mg, Day1, single dose 35 mg (n = 3), read-out: AUC0–144 h) of 11900 ng·h/mL. It also gave a Cmax [1, 12] of 773 ng/mL, a Tmax [1, 12] of 4 h and an AUC(0-t) ([1]; human, plasma, oral, 35 mg, Day28, multiple dose 35 mg once daily (n = 3), read-out: AUC0–24 h) of 11800 ng·h/mL. For the same molecule, the Cmax [1, 13] was 756 ng/mL, the Tmax [1, 13] was 1 h and the AUC(0-t) ([1]; human, plasma, oral, 50 mg, Day1, single dose 50 mg (n = 3), read-out: AUC0–24 h) was 7420 ng·h/mL. For the same molecule, the AUC(0-t) ([1]; human, plasma, oral, 50 mg, Day1, single dose 50 mg (n = 3), read-out: AUC0–144 h) was 16400 ng·h/mL, the Cmax [1, 14] was 1120 ng/mL and the Tmax [1, 14] was 2 h. The AUC(0-t) ([1]; human, plasma, oral, 50 mg, Day28, multiple dose 50 mg once daily (n = 3), read-out: AUC0–24 h) was 14500 ng·h/mL, the Cmax [1, 15] was 1280 ng/mL and the Tmax [1, 15] was 1.5 h. For the same molecule, the AUC(0-t) ([1]; human, plasma, oral, 65 mg, Day1, single dose 65 mg (n = 4), read-out: AUC0–24 h) was 11000 ng·h/mL, the AUC(0-t) ([1]; human, plasma, oral, 65 mg, Day1, single dose 65 mg (n = 4), read-out: AUC0–144 h) was 24800 ng·h/mL and the Cmax [1, 16] was 2240 ng/mL. It also gave a Tmax [1, 16] of 2 h, an AUC(0-t) ([1]; human, plasma, oral, 65 mg, Day28, multiple dose 65 mg once daily (n = 4), read-out: AUC0–24 h) of 24200 ng·h/mL and a half-life ([1]; human, plasma, oral, after first dose in run-in period, 10-65 mg, read-out: terminal half-life (t1/2) (converted)) of 25.6 ± 6.73 h. The IC50 (VEGFR2) was “single-digit nanomolar range”, the IC50 (VEGFR1) was “single-digit nanomolar range” and the IC50 (c-Kit) was “single-digit nanomolar range”. The IC50 (Aurora B) was “single-digit nanomolar range”.

Reference: paper PMC6332596 (Journal of Hematology & Oncology, 2019)
